Our source for the IC50 values is US10538521B2, “Pyrimidine derivative having antimalarial activity” (CARNA BIOSCIENCES, INC., priority 2016, dated 2020).

Molecules are shown by their SMILES. Bounds are passed on as bounds.

Test [1] deals with K1 strain, a drug resistant strain of Plasmodium falciparum. The experiment in a line: In vitro antimalarial assay (p-LDH, Malstat), K1 strain. In kind it is cell-based. As to conditions: P. falciparum K1 (drug resistant), 72 h culture, p-LDH readout, read-out: Antimalarial activity (IC50 value), Strain K1. The source says:
(§1) For the evaluation of the antimalarial activity of the compound of the present invention, K1 strain, a drug resistant strain of Plasmodium falciparum, and FCR3 strain, a drug sensitive strain thereof, which were generous gift from Professor Kiyoshi Kita of the Graduate School of Medicine and Faculty of Medicine, the University of Tokyo, were used to measure the in vitro antimalarial activity of the compound against those Plasmodium species according to the method established by Otoguro et al. (Otoguro, K., Kohana, A., Manabe, C., Ishiyama, A., Ui, H., Shiomi, K., Yamada, H. & Omura, S.: Potent antimalarial activity of polyether antibiotic, X-206. J. Antibiot., 54: 658-663, (2001)).
(§2) The parasites were grown based on a slightly modified method from the original method reported by Trager and Jensen (Trager, W. and Jensen, J.: Human malaria parasites in continuous culture, Science, 193: 673-677, (1976)), and those which were maintained and sub-cultured by the method were used. More specifically, in a culture dish, erythrocytes infected with the protozoa, which had been sub-cultured using a RPMI 1640 medium to which 10% human plasma had been added and fresh human erythrocytes, were diluted (hematocrit value: 2 to 5%, parasitaemia: 0.25 to 1%), and were cultured at 37° C. in a mixed gas of 3% O2-4% CO2-93% N2, and continuously cultured while changing the medium and adding fresh erythrocytes at 2- or 3-day intervals.
(§3) A drug susceptibility test was performed by modifying the method established by Desjardins et al. (Desjardins, R. E., Canfield, C. J., Haynes, D. E. and Chulay, J. D.: Quantitative assessment of antimalarial activity in vitro by a semiautomated microdilution technique. Antimicrob. Agents Chemother., 16: 710-718 (1979)). More specifically, 190 μL of a suspension of protozoa which had been precultured (hematocrit value: 2%, parasitaemia: 0.5 or 1%) and 10 μL of a solution of a test compound (5% DMSO solution) serially diluted so that the final concentration was 12.5 to 0.0001 μM were put in each well of a 96-well plate, and after mixing, the same was cultured for 72 hours in the above mixed gas.
(§4) For the measurement of the growth of protozoa, the method established by Makler (Makler, M. T., Rise, J. M., Williams, J. A., Bancroft, J. E., Piper, R. C., Gibbins, B. L. and Hinrichs, D. J.: Parasite lactate dehydrogenase as an Assay for Plasmodium falciparum drug sensitivity, Am. J. Med. Hyg., 48: 739-741 (1993)) was modified to colorimetrically determine parasite lactate dehydrogenase (p-LDH) using Malstat reagent (Flow Inc., USA).
(§5) More specifically, 72 hours after the culture, the 96-well plate was directly frozen at −20° C. for 18 hours and melted at 37° C. to hemolyze the protozoan-infected erythrocytes and destroy the protozoa to prepare a crude enzyme solution. 100 μL of Malstat reagent and 20 μL of the crude enzyme solution were added to and mixed in each well of another 96-well plate, and after reacting for 15 minutes at room temperature, 20 μL of a nitroblue tetrazolium 2 mg/mL phenazine ethosulfate 0.1 mg/mL=1:1 solution was added to the respective wells, and reaction was performed in dark conditions at room temperature for 2 hours.
(§6) The absorbance of the blue formazan product formed by the reaction was measured at a measurement wavelength of 655 nm by using a microplate reader (Labsystems, Finland) to colorimetrically determine the growth of the protozoa. The 50% growth inhibitory concentration for the protozoa of the compound (IC50 value) was determined based on the concentration-response curve of the compound.

The test system of test [2] is FCR3 strain, a drug sensitive strain of Plasmodium falciparum. The experiment in a line: In vitro antimalarial assay (p-LDH, Malstat), FCR3 strain. In kind it is cell-based. As to conditions: P. falciparum FCR3 (drug sensitive), 72 h culture, p-LDH readout, read-out: Antimalarial activity (IC50 value), Strain FCR3.
Source text: as §1, §2, §3, §4, §5, §6

The IC50 is the concentration that inhibits the measured activity by half. As for `Fc1cccnc1Nc1nc(Nc2ccn3ccnc3c2)cc(N2CCOCC2)n1` [Example 20, N2-(3-Fluoropyridin-2-yl)-N4-(imidazo[1,2-a]pyridin-7-yl)-6-morpholinopyrimidine-2,4-diamine], the IC50 in test [1] and in test [2] was 100 to 1000 nM each time.

As to `Fc1ccnc(Nc2nc(Nc3ccn4ccnc4c3)cc(N3CCOCC3)n2)c1` [Example 21, N2-(4-Fluoropyridin-2-yl)-N4-(imidazo[1,2-a]pyridin-7-yl)-6-morpholinopyrimidine-2,4-diamine], the IC50 in test [1] and in test [2] was 100 to 1000 nM in each case.

On to `c1cc(Nc2nc(Nc3ccn4ccnc4c3)cc(N3CCOCC3)n2)ncn1` [Example 22, N4-(Imidazo[1,2-a]pyridin-7-yl)-6-morpholino-N2-(pyrimidin-4-yl)pyrimidine-2,4-diamine], for which the IC50 in test [1] and in test [2] was 100 to 1000 nM in each case.

As for `COc1ccncc1Nc1nc(Nc2ccn3ccnc3c2)cc(N2CCOCC2)n1` [Example 23, N4-(Imidazo[1,2-a]pyridin-7-yl)-N2-(4-methoxypyridin-3-yl)-6-morpholinopyrimidine-2,4-diamine], the figures for the IC50 in test [1] and in test [2] were 1000 to 10000 nM and 100 to 1000 nM, respectively.

`Cc1ccnc(Nc2nc(Nc3ccn4ccnc4c3)cc(N3CCN(C)CC3)n2)c1` [Example 25, N4-(imidazo[1,2-a]pyridin-7-yl)-6-(4-methylpiperazin-l-yl)-N 2-(4-methylpyridin-2-yl)pyrimidine-2,4-diamine]: the IC50 in test [1] and in test [2] was 1000 to 10000 nM each time.

In the case of `Cc1ccc(Nc2nc(Nc3ccn4ccnc4c3)cc(N3CCCCC3)n2)nc1` [Example 26, N4-(imidazo[1,2-a]pyridin-7-yl)-N2-(5-methylpyridin-2-yl)-6-(piperidin-1-yl)pyrimidine-2,4-diamine], the IC50 in test [1] and in test [2] was below 100 nM in each case.

For the compound `Cc1ccc(Nc2nc(Nc3ccn4ccnc4c3)cc(N3CCN(C)CC3)n2)nc1` [Example 27, N4-(imidazo[1,2-a]pyridin-7-yl)-6-(4-methylpiperazin-1-yl)-N 2-(5-methylpyridin-2-yl) pyrimidine-2,4-diamine], the half-maximal inhibitory concentration (IC50) in test [1] is 100 to 1000 nM; in test [2] it was 1000 to 10000 nM.

For `CCOc1cc(Nc2ccn3ccnc3c2)nc(Nc2cccc(C)n2)n1` [Example 29, 6-ethoxy-N4-(imidazo[1,2-a]pyridin-7-yl)-N2-(6-methylpyridin-2-yl)pyrimidine-2,4-diamine], the IC50 in test [1] and in test [2] was 100 to 1000 nM in each case.

Turning to `Cc1cc(C)nc(Nc2nc(Nc3ccn4ccnc4c3)cc(N3CCN(C)CC3)n2)c1` [Example 30, N2-(4,6-dimethylpyridin-2-yl)-N4-(imidazo[1,2-a]pyridin-7-yl)-6-(4-methylpiperazin-1-yl) pyrimidine-2,4-diamine], the IC50 in test [1] and in test [2] was below 100 nM in each case.

As to `Cc1cc(C)nc(Nc2nc(Nc3ccn4ccnc4c3)cc(N3CCN[C@@H](C)C3)n2)c1` [Example 31, (S)-N2-(4,6-dimethylpyridin-2-yl)-N4-(imidazo[1,2-a]pyridin-7-yl)-6-(3-methylpiperazin-1-yl)pyrimidine-2,4-diamine], the IC50 in test [1] and in test [2] was 100 to 1000 nM in each case.

Consider `CCOc1cc(Nc2ccn3ccnc3c2)nc(Nc2cc(C)cc(C)n2)n1` [Example 33, N2-(4,6-dimethylpyridin-2-yl)-6-ethoxy-N4-(imidazo[1,2-a]pyridin-7-yl)pyrimidine-2,4-diamine], for which the IC50 was 100 to 1000 nM in test [1] and below 100 nM in test [2].

For `Cc1ccnc(Nc2nc(Nc3ccn4ccnc4c3)cc(N3CCN(C)[C@@H](C)C3)n2)c1` [Example 35, (S)-6-(3,4-dimethylpiperazin-1-yl)-N4-(imidazo[1,2-a]pyridin-7-yl)-N2-(4-methylpyridin-2-yl)pyrimidine-2,4-diamine], the IC50 in test [1] and in test [2] was 1000 to 10000 nM in each case.

For `CCOc1cc(Nc2ccn3ccnc3c2)nc(Nc2cc(C)ccn2)n1` [Example 36, 6-ethoxy-N4-(imidazo[1,2-a]pyridin-7-yl)-N2-(4-methylpyridin-2-yl) pyrimidine-2,4-diamine], the half-maximal inhibitory concentration (IC50) in test [1] and in test [2] was 1000 to 10000 nM in each case.

On to `Cc1ccc(Nc2nc(Nc3ccn4ccnc4c3)cc(N3CCN(C)[C@@H](C)C3)n2)nc1` [Example 37, (S)-6-(3,4-dimethylpiperazin-1-yl)-N4-(imidazo[1,2-a]pyridin-7-yl)-N2-(5-methylpyridin-2-yl)pyrimidine-2,4-diamine], for which the IC50 in test [1] and in test [2] was 1000 to 10000 nM throughout.

With `CCOc1cc(Nc2ccn3ccnc3c2)nc(Nc2ccc(C)cn2)n1` [Example 38, 6-ethoxy-N4-(imidazo[1,2-a]pyridin-7-yl)-N2-(5-methylpyridin-2-yl)pyrimidine-2,4-diamine], the IC50 in test [1] and in test [2] was 100 to 1000 nM each time.

For `Cc1cccc(Nc2nc(Nc3ccn4ccnc4c3)cc(N3CCN(C)CC3)n2)n1` [Example 39, N4-(imidazo[1,2-a]pyridin-7-yl)-6-(4-methylpiperazin-1-yl)-N2-(6-methylpyridin-2-yl)pyrimidine-2,4-diamine], the IC50 in test [1] and in test [2] was 1000 to 10000 nM each time.

On to `Cc1cccc(Nc2nc(Nc3ccn4ccnc4c3)cc(N3CCN(C)[C@@H](C)C3)n2)n1` [Example 40, (S)-6-(3,4-dimethylpiperazin-1-yl)-N4-(imidazo[1,2-a]pyridin-7-yl)-N2-(6-methylpyridin-2-yl)pyrimidine-2,4-diamine], for which the IC50 in test [1] and in test [2] was 1000 to 10000 nM in each case.

`Cc1cccc(Nc2nc(Nc3ccn4ccnc4c3)cc(-n3ccnc3)n2)n1` [Example 41, N4-(imidazo[1,2-a]pyridin-7-yl)-6-(1H-imidazol-1-yl)-N2-(6-methylpyridin-2-yl)pyrimidine-2,4-diamine]: the IC50 in test [1] is 100 to 1000 nM; in test [2], below 100 nM.

For `Cc1ccnc(Nc2nc(Nc3ccn4ccnc4c3)cc(-n3ccnc3)n2)c1` [Example 42, N4-(imidazo[1,2-a]pyridin-7-yl)-6-(1H-imidazol-1-yl)-N2-(4-methylpyridin-2-yl)pyrimidine-2,4-diamine], the IC50 in test [1] and in test [2] was 100 to 1000 nM each time.

Consider `Cc1ccc(Nc2nc(Nc3ccn4ccnc4c3)cc(-n3ccnc3)n2)nc1` [Example 43, N4-(imidazo[1,2-a]pyridin-7-yl)-6-(1H-imidazol-1-yl)-N2-(5-methylpyridin-2-yl)pyrimidine-2,4-diamine], for which the IC50 is 100 to 1000 nM in test [1] and below 100 nM in test [2].

For `Cc1ccc(Nc2nc(N)cc(Nc3ccn4ccnc4c3)n2)nc1` [Example 44], the IC50 in test [1] and in test [2] was below 100 nM each time.

Regarding `Cc1cc(C)nc(Nc2nc(Nc3ccn4ccnc4c3)cc(N3CCN(C)[C@@H](C)C3)n2)c1` [Example 45, (S)-6-(3,4-dimethylpiperazin-1-yl)-N2-(4,6-dimethylpyridin-2-yl)-N4-(imidazo[1,2-a]pyridin-7-yl)pyrimidine-2,4-diamine], the IC50 was 1000 to 10000 nM in test [1] and below 100 nM in test [2].

For the compound `Cc1cc(C)nc(Nc2nc(Nc3ccn4ccnc4c3)cc(-n3ccnc3)n2)c1` [Example 46], the IC50 is 100 to 1000 nM in test [1] and below 100 nM in test [2].
